Laboratory results published in patent US20160303114A1 (Laguna Pharmaceuticals, Inc., priority 2013, published 2016).

Columns and labels:
[1] = Example 5: concentrations of vanoxerine and its metabolites in patients after a 300 mg dose of vanoxerine; type: in vivo, human; details: low concentration group, 300 mg vanoxerine
Procedure: Each patient gave samples before administration of their dose, and then again at nine further time points, 30 minutes after administration, 1, 2, 3, 4, 6, 8, 12, and 24 hours post administration.

[2] = Example 4: plasma concentrations of vanoxerine in patients after an oral vanoxerine HCL tablet; type: in vivo, human; details: outlier patient, CYP2D6 slow metabolizer
Description: The results identified high levels of variability between patients and a single outlier, who was particularly profiled to determine the possible cause of the high plasma concentration levels.
Accordingly, the individual patient could have received administration of ½ to ¼ the dose of other patients for the same effective plasma concentration as the majority of the patients in the study.

[3] = healthy subjects, higher doses of vanoxerine; cited from earlier work
[4] = Preliminary studies of daily use of vanoxerine over 7, 10 and 14 days; type: in vivo; details: daily use over 7, 10, and 14 days, 75, 100, 125, and 150 mg a day
Description: However, control and prevention of events of cardiac arrhythmia are important to these patients to prevent future recurrences and the deleterious effects and morbidity.

plasma levels, highest at any time point [1]: ~40 ng/mL
plasma concentration [2]: unusually high plasma concentration
SMILES: Fc1ccc(C(OCCN2CCN(CCCc3ccccc3)CC2)c2ccc(F)cc2)cc1 [Vanoxerine, 1-[2-[bis(4-fluorophenyl)methoxy]ethyl]-4-(3-phenylpropyl)piperazine]
effects seen at higher doses [3]: concentration difficulties, increase systolic blood pressure, asthenia, and a feeling of drug influence
effects of daily use [4]: increased heart rate and systolic blood pressure
